# Laboratory results taken from article PMC6099102, “Effect of the Nature of Donor Atoms on the Thermodynamic, Kinetic and Relaxation Properties of Mn(II) Complexes Formed With Some Trisubstituted 12-Membered Macrocyclic Ligands” (Frontiers in Chemistry, 2018).
# Experiment: Stability and protonation constants and pMn of the Mn(II) complexes (pH-potentiometry and/or 1H relaxometry)
# Format: physicochemical
# Details: I = 0.15 M NaCl, 25 °C; for pMn: calculated at pH = 7.4, cM = cL = 10^−5 M; for log KMLH: protonation constant of the Mn(II) complex
# Protocol: The concentration of the ligand solutions was determined by pH-potentiometric titration in the presence and absence of an excess (5–10 fold) of MnCl2. For determining the protonation constants of the investigated ligands, pH-potentiometric titrations were made by means of 0.2 M standardized NaOH in 2 and 3 mM ligand solutions in the pH-range of 1.75–11.85. All equilibrium measurements were performed at a constant 0.15 M NaCl ionic strength at 25 °C. The protonation and the stability constants of the Mn(II) complexes were determined by pH-potentiometric titrations (DOTP, DO3A, PCTA, ODO3A, DO3P) while owing to the slow formation rates of Mn(II) complexes formed with amide type ligands, the stability constants of DOTAM, DOTMA, DO3AM^H, PC3AM^H, PC3AM^Gly, PC3AM^Pip complexes were determined by out-of-cell pH-potentiomertry in combination with ^1H relaxometry. The metal-to-ligand concentration ratio in the solutions was 1:1. For the calculation of protonation constants of the ligands and the log KMnL and log KMnLHi values of the complexes, mL–pH data pairs (50–180), obtained in the pH range of 1.75–11.85 or r1obs-pH data pairs (10–15 batch samples) obtained in the pH range of 2–4.5 were used (the samples were equilibrated for 4–7 days). The equilibrium constants characterizing the deprotonation that occurs at basic pH were determined from the data obtained via direct pH-potentiometric titrations performed on the pre-formed complexes.
# The pH-potentiometric titrations were carried out with a Methrohm 888 Titrando titration workstation using a Metrohm-6.0233.100 combined electrode. The samples (6.00 mL) were thermostated at 25 °C. The samples were stirred and kept under inert gas (N2) to avoid the effect of CO2. KH-phthalate (pH = 4.005) and borax (pH = 9.177) buffers were used for the pH-calibration. The method proposed by Irving et al. was used for the calculation of H^+ concentrations from the measured pH values (Irving et al., [1967]). A 0.01 M HCl (I = 0.15 M set with NaCl) solution was titrated with standardized NaOH solution of known concentration (approx. 0.2 M). The correction factor obtained as difference of calculated pH and measured pH values was used to calculate the [H^+] in the samples. The ionic product of water was determined from the same titrations (HCl/NaOH) from the data collected in the pH range of 11.20–11.85.
# The relaxometric data were collected using a Bruker Minispec MQ20 NMR relaxometer. […] A datapoint plotted on figures represents an average of 5–6 T1 measurements (Figures S3–S9 in Supplementary Material). The data were fitted by using the molar r1p relaxivity value of the MnCl2 ([…] at 0.49 T and 25 °C). The equilibrium constants were calculated using the PSEQUAD program (Zékány and Nagypál, [1985]).
# In order to gain information on the thermodynamic stability of the Mn(II) complexes, samples containing the metal and ligand in 1 to 1 molar ratio were studied by pH potentiometry or ^1H-relaxometry and in some cases by a combination of the two methods. The titration data were fitted by assuming the existence of [M(L)] and some protonated species ([M(HiL)]) at lower pH values. In some cases to fit the data obtained at higher pH, the formation of ternary hydroxido complexes ([M(L)(OH)]) were also included in the equilibrium model. The stability constants (KML) and the various protonation forms (KMHiL) of ML metal chelates are defined by Equations (3)–(5). However, a comparison of the stabilities of different complexes solely on the basic of their stability constants might be misleading because of the differences in ligand basicities. […] The pMn value accounts for the effect of proton competition (ligand basicity and complex protonation) on the stability constant essentially offering the same information as the conditional stability constant. Higher pMn values indicate a higher chelate stability at specified conditions. […]
# [1] = stability constant of the Mn(II) complex
# [2] = stability constant of the Mn(II) complex by 1H-relaxometry
Structure (SMILES),pMn,log KMLH,log KML [1],log KMHLH (second protonation constant of the Mn(II) complex),log KMH2LH (third protonation constant of the Mn(II) complex),log KML [2],log KMLOH (ternary hydroxido complex of Mn(II))
O=C(O)CN1CCNCCN(CC(=O)O)CCN(CC(=O)O)CC1 [DO3A],8.66,4.26 (2),16.55 (4),,,,
O=P(O)(O)CN1CCNCCN(CP(=O)(O)O)CCN(CP(=O)(O)O)CC1 [DO3P],6.43,8.06 (2),17.45 (2),7.05 (1),5.31 (2),,
NC(=O)CN1CCN(CC(N)=O)Cc2cccc(n2)CN(CC(N)=O)CC1 [PC3AM^H],7.77,,11.94(3),,,11.78 (8),10.90 (4)

# Further lines, results first:
pMn,log KMLH,log KML [1],log KMHLH (second protonation constant of the Mn(II) complex),log KMH2LH (third protonation constant of the Mn(II) complex),log KML [2],log KMLOH (ternary hydroxido complex of Mn(II)),Structure (SMILES)
9.74,1.96(1),16.83 (1),,,16.64 (7),,O=C(O)CN1CCN(CC(=O)O)Cc2cccc(n2)CN(CC(=O)O)CC1 [PCTA]
8.86,,,,,,,O=C(CN1CCN(CC(=O)N2CCCCC2)Cc2cccc(n2)CN(CC(=O)N2CCCCC2)CC1)N1CCCCC1.[Mn+2] [[Mn(PC3AM^Pip)]^2+]
